Measured values: US10639298B2 (Biohaven Pharmaceutical Holding Company Ltd., priority 2015, dated 2020)
Like-named read-outs stand apart in the source and are kept apart here.

Experiments:
[1] = Rat pharmacokinetic studies of prodrug and released riluzole (IV or oral); assay type: in vivo, Sprague-Dawley rats; conditions: rat, plasma, fasted male Sprague Dawley rats; for clearance: read-out: Compound of the disclosure Cl (converted); for Vd: read-out: Compound of the disclosure Vss; for half-life: read-out: Compound of the disclosure t1/2 (converted)
Procedure: Rat Pharmacokinetic Studies of the Compounds of the Disclosure:
Blood samples were collected at pre-determined time points including a 0 h time point and usually between 7 and 8 additional time points not exceeding a 24 h period.
Plasma samples were extracted and analyzed using the methods described in Plasma Sample Extraction and Analysis. All data are expressed as ng/mL of the free base. Samples that were below the limit of quantification (0.5 ng/mL) were not used in the calculation of averages.
Pharmacokinetic parameters were calculated from the time course of the plasmaconcentrations. Pharmacokinetic parameters were determined with Phoenix Winnonlin (v6.3) software using a non-compartmental model. The maximum plasma concentration (Cmax) and time to the maximum plasma concentration (Tmax) of the compound of the disclosure were observed from the data. The area under the concentration-time curve (AUC) of the compound of the disclosure was calculated using the trapezoidal formula with calculation to the last quantifiable data point, and to infinity if applicable. Plasma half-life (t½) was calculated from 0.693/slope of the terminal elimination phase. Mean residence time, MRT, was calculated by dividing the area under the moment curve (AUMC) by the AUC. Any samples below the limit of quantitation (0.5 ng/mL) were treated as zero for pharmacokinetic data analysis.
Plasma Sample Extraction and Analysis:
Analytical stock solutions (1.00 mg/mL of the free compound of the disclosure) were prepared in DMSO. Standards were prepared in diluted matrix containing 1 part 10% formic acid and 9 parts Sprague-Dawley rat plasma containing sodium heparin as the anticoagulant (pre-diluted with 1 part of 0.5M citric acid and 9 parts whole blood). Working solutions were prepared in 50:50 acetonitrile:water. Working solutions were then added to plasma to make calibration standards to final concentrations of 1000, 500, 100, 50, 10, 5, 1, and 0.5 ng/mL. Standards contained both the test article and riluzole. Standards were treated identically to the study samples.
Plasma samples were extracted via acetonitrile precipitation on a Tomtec Quadra 96-Model 320 liquid handling system in a 96-well plate format.

[2] = PK in fasted male mice, prodrug and released riluzole (IV, PO); conditions: mouse, in vivo; for AUC(0-t): read-out: Prodrug AUClast (Mean)
[3] = test system: Stage III and IV melanoma; conditions: 14 days of treatment, cited from earlier work
[4] = IV, prodrug dose 2.8 mg/Kg, read-out: Compound of the disclosure AUClast
[5] = PO 5 mg/kg, read-out: Prodrug AUClast (Mean)

Compound	AUC(0-t) [1, 4] [ng·h/mL]	clearance ([1]; IV, prodrug dose 2.8 mg/Kg) [mL/min/kg]	Vd ([1]; IV, prodrug dose 2.8 mg/Kg) [L/kg]	half-life ([1]; IV, prodrug dose 2.8 mg/Kg) [h]	other results
CCNCC(=O)N1CCC[C@@H]1C(=O)Nc1nc2ccc(OC(F)(F)F)cc2s1 [Example 52, (R)-1-N-ethylglycinyl-N-(6-(trifluoromethoxy)benzo [d]thiazol-2-yl) pyrrolidine-2-carboxamide]	3620	9	3.55	4.75	–
CC(C)(CN)C(=O)N1CCC[C@H]1C(=O)Nc1nc2ccc(OC(F)(F)F)cc2s1 [Example 59, (S)-1-(3-amino-2,2-dimethylpropanoyl)-N-(6-(trifluoromethoxy)benzo[d]thiazol-2-yl)pyrrolidine-2-carboxamide]	2770	10.7	5.11	6.2	–
NCC(=O)NC1(C(=O)Nc2nc3ccc(OC(F)(F)F)cc3s2)CCC1 [Example 82, 1-(2-aminoacetamido)-N-(6-(trifluoromethoxy)benzo[d]thiazol-2-yl)cyclobutane-1-carboxamide]	663	71.3	4.14	1.03	–
CNCC(=O)NC1(C(=O)Nc2nc3ccc(OC(F)(F)F)cc3s2)CCC1 [Example 83, 1-(2-(methylamino)acetamido)-N-(6-(trifluoromethoxy)benzo[d]thiazol-2-yl)cyclobutane-1-carboxamide]	–	–	–	–	AUC(0-t) ([1]; IV, prodrug dose 1.8 mg/Kg, read-out: Compound of the disclosure AUClast): 1720 ng·h/mL; clearance ([1]; IV, prodrug dose 1.8 mg/Kg): 11.3 mL/min/kg; Vd ([1]; IV, prodrug dose 1.8 mg/Kg): 5.06 L/kg; half-life ([1]; IV, prodrug dose 1.8 mg/Kg): 5.56 h
CNCC(=O)NC(C)(C)C(=O)Nc1nc2ccc(OC(F)(F)F)cc2s1 [Example 111, 2-methyl-2-(2-(methylamino)acetamido)-N-(6-(trifluoromethoxy)benzo[d]thiazol-2-yl)propanamide]	4650	5.75	3.19	6.51	–
CC(C)NCC(=O)NC(C)(C)C(=O)Nc1nc2ccc(OC(F)(F)F)cc2s1 [Example 113, 2-(2-(isopropylamino)acetamido)-2-methyl-N-(6-(trifluoromethoxy)benzo[d]thiazol-2-yl)propanamide]	2760	11.5	4.88	5.45	–
CN(CC(=O)Nc1nc2ccc(OC(F)(F)F)cc2s1)C(=O)C(C)(C)CN [Example 118, 3-Amino-N,2,2-trimethyl-N-(2-oxo-2-((6-(trifluoromethoxy)benzo[d]thiazol-2-yl)amino)ethyl)propanamide]	2480	18.8	3.35	10.4	–
CN(CC(=O)Nc1nc2ccc(OC(F)(F)F)cc2s1)C(=O)C1(CN)CC1 [Example 119, 1-(aminomethyl)-N-methyl-N-(2-oxo-2-((6-(trifluoromethoxy)benzo[d]thiazol-2-yl)amino)ethyl)cyclopropane-1-carboxamide]	1720	27.2	4.7	9.3	–
CN(CC(=O)Nc1nc2ccc(OC(F)(F)F)cc2s1)C(=O)C1(CN)CCCC1 [Example 120, 1-(aminomethyl)-N-methyl-N-(2-oxo-2-((6-(trifluoromethoxy)benzo[d]thiazol-2-yl)amino)ethyl)cyclopentane-1-carboxamide]	2460	19	3.63	8.66	–
CN(CC(=O)Nc1nc2ccc(OC(F)(F)F)cc2s1)C(=O)C1(CN)CCCCC1 [Example 121, 1-(aminomethyl)-N-methyl-N-(2-oxo-2-((6-(trifluoromethoxy)benzo[d]thiazol-2-yl)amino)ethyl)cyclohexane-1-carboxamide]	1290	36.3	6.15	4.83	–
CNCC(=O)N(C)CC(=O)Nc1nc2ccc(OC(F)(F)F)cc2s1 [Example 122, N-methyl-2-(methylamino)-N-(2-oxo-2-((6-(trifluoromethoxy)benzo[d]thiazol-2-yl)amino)ethyl)acetamide]	219	66.3	0.861	0.28	–
CCNCC(=O)N(C)CC(=O)Nc1nc2ccc(OC(F)(F)F)cc2s1 [Example 123, 2-(ethylamino)-N-methyl-N-(2-oxo-2-((6-(trifluoromethoxy)benzo[d]thiazol-2-yl)amino)ethyl)acetamide]	787	59	2.04	0.68	–
CC(C)NCC(=O)N(C)CC(=O)Nc1nc2ccc(OC(F)(F)F)cc2s1 [Example 124, 2-(isopropylamino)-N-methyl-N-(2-oxo-2-((6-(trifluoromethoxy)benzo[d]thiazol-2-yl)amino)ethyl)acetamide]	580	81.2	2.67	0.63	–
NCC1(C(=O)N2CCC[C@@H]2C(=O)Nc2nc3ccc(OC(F)(F)F)cc3s2)CCCCC1 [Example 173, (R)-1-(1-(aminomethyl)cyclohexane-1-carbonyl)-N-(6-(trifluoromethoxy)benzo[d]thiazol-2-yl)pyrrolidine-2-carboxamide]	1440	22.3	9.66	6.7	–
CN(CC(=O)Nc1nc2ccc(OC(F)(F)F)cc2s1)C(=O)CNC(=O)CN [Example 204, 2-Amino-N-{[methyl({[6-(trifluoromethoxy)-1,3-benzothiazol-2-yl]carbamoyl}methyl)carbamoyl]methyl}acetamide]	232	220	2.47	0.237	Cmax ([1]; PO 5 mg/kg): 1.84 ng/mL; Tmax ([1]; PO 5 mg/kg): 0.28 h; AUC(0-t) [1, 5]: 0.9 ng·h/mL; AUC(0-inf) ([2]; IV 1 mg/kg, read-out: Prodrug AUCinf (Mean)): 533 ng·h/mL; AUC(0-t) ([2]; IV 1 mg/kg): 532 ng·h/mL; clearance ([2]; IV 1 mg/kg, read-out: Prodrug CL (Mean) (converted)): 32.3 mL/min/kg; half-life ([2]; IV 1 mg/kg, read-out: Prodrug T1/2 (Mean) (converted)): 0.29 h; Vd ([2]; IV 1 mg/kg, read-out: Prodrug Vss (Mean)): 0.46 L/kg; Cmax ([2]; PO 5 mg/kg): 4.71 ng/mL; Tmax ([2]; PO 5 mg/kg): 0.33 h; AUC(0-t) ([2]; PO 5 mg/kg): 3.85 ng·h/mL
CN(CC(=O)Nc1nc2ccc(OC(F)(F)F)cc2s1)C(=O)CNC1CNC1 [Example 212, 2-[(Azetidin-3-yl)amino]-N-methyl-N-({[6-(trifluoromethoxy)-1,3-benzothiazol-2-yl]carbamoyl}methyl)acetamide]	–	–	–	–	AUC(0-t) ([1]; IV, prodrug dose 1.4 mg/Kg, read-out: Compound of the disclosure AUClast): 218 ng·h/mL; clearance ([1]; IV, prodrug dose 1.4 mg/Kg): 104 mL/min/kg; Vd ([1]; IV, prodrug dose 1.4 mg/Kg): 6.21 L/kg; half-life ([1]; IV, prodrug dose 1.4 mg/Kg): 2.43 h
CN(CC(=O)Nc1nc2ccc(OC(F)(F)F)cc2s1)C(=O)CNC1CCNCC1 [Example 216, N-Bethyl-2-[(piperidin-4-yl)amino]-N-({[6-(trifluoromethoxy)-1,3-benzothiazol-2-yl]carbamoyl}methyl)acetamide]	1910	23	2.53	3.98	Cmax ([1]; PO 5 mg/kg): 2.96 ng/mL; Tmax ([1]; PO 5 mg/kg): 2.17 h; AUC(0-t) [1, 5]: 16.6 ng·h/mL
CN(CC(=O)Nc1nc2ccc(OC(F)(F)F)cc2s1)C(=O)CNC1COC1 [Example 234, N-Methyl-2-[(oxetan-3-yl)amino]-N-({[6-(trifluoromethoxy)-1,3-benzothiazol-2-yl]carbamoyl}methyl)acetamide]	3240	14.2	1.1	1.5	–
Nc1nc2ccc(OC(F)(F)F)cc2s1 [riluzole]	–	–	–	–	Patients with clinical or radiologic evidence of tumor response ([3]; listed as Riluzole): four of 12; Patients with clinical or radiologic evidence of tumor response [3]: four of twelve
